Experimental data from PMC3929086, “Targeted manipulation of the sortilin–progranulin axis rescues progranulin haploinsufficiency” (Human Molecular Genetics, 2013).
Each block holds one molecule with its values, some of them ahead of it.

Assays:
GRN expression = details: HDAC inhibitor; cited from earlier work
Description: While new strategies designed to upregulate PGRN levels have emerged, challenges remain in terms of limiting off-target effects. […] However, because HDAC and V-ATPase inhibitors can potentially affect a wide-range of genes at transcriptional and po ...

[1] = test system: PGRN endocytosis in SORT1^KO-hESCs; test: DyL-rPGRN endocytosis in SORT1^KO-hESCs; assay type: cell-based, human; details: SORT1^KO-hESC
Description: (§1) To determine whether BVFP, when bound to PGRN, disrupts full-length PGRN and SORT1 binding, we devised a SORT1-dependent rPGRN precipitation assay utilizing the Meso-Scale Discovery (MSD) system (Supplementary Material, Fig. S4A and B). […] To include a higher-affinity PGRN588–593 motif binder as a positive control, an antibody targeting the motif, PGRN-CT antibody, was made for validating the approach (Fig. 5F). […] First, we found SORT1 was abundantly expressed in the wild-type hESCs (Fig. 5H). Similar to the results from COS-1^SORT1 cells, BVFP and PGRN-CT antibody inhibited endocytosis of DyL-rPGRN by 22 and 39%, respectively, under the same experimental conditions in wild-type hESCs (Fig. 5I left).
(§2) COS-1 cells seeded on a 96-well black plate 1 day before were transfected with pCMV-SORT1 vector. After 24 h, cells were treated with fluorescence-tagged rPGRN (DyL-rPGRN) pre-labeled by DyLight™ 594 antibody labeling kit (Thermo Scientific). The DyL-rPGRN was diluted in OptiMEM to tested concentrations and incubated with the cells for 1 h for endocytosis. The cells were then washed with cold PBS and then fixed by 4% paraformaldehyde. After washing twice, each well was filled with PBS prior scanning. The total PGRN fluorescent signal from the cells was obtained by a plate reader with 593/618 nm (Ex/Em) settings. […]

SORT1–PGRN interaction = test: MSD-based SORT1–PGRN interaction assay; assay type: biochemical, human; details: BVFP 20 and 200 μM pre-incubated 30 min with 200 nM N-rP
Description: M17 cells were transfected with pCMV-SORT1-Flag for 48 h. Then, the cell lysate was harvested by the same method used in the co-immunoprecipitation assay. Expression of SORT1-Flag protein was confirmed by western blot. MSD plate was first coated with the Flag M2 antibody (Sigma). Following an overnight incubation at 4°C, the plate was blocked for 2 h and then washed prior to addition of 5 µg/well of lysate protein containing SORT1-Flag protein. After overnight incubation at 4°C, it was then washed and added with 200 nM of either N-6His- or C-6His-tagged rPGRN pre-incubated with either vehicle, 20 µM or 200 µM of BVFP, for 30 min at room temperature. Then plate was then incubated for 2 h, washed and incubated with a mixture of PCDGF antibody and a SULFO-TAG-labeled anti-rabbit IgG antibody for 2 h. After final wash, the plate was read by the MSD Sector Imager 2400.

PGRN(588–593) peptide = test: UV-absorption titration of BVFP with PGRN(588–593) peptide; assay type: binding, human; details: 20 μM BVFP, PGRN(588–593) peptide titrated
Description: Stock solutions of compound BVFP (20 mM) and PGRN(588–593) peptide (12.96 mM) were prepared in DMSO and water, respectively. For the UV absorption experiment, both components were diluted to give final concentrations of 20 μM BVFP and 324 μM peptide. The interaction between BVFP and the PGRN(588–593) peptide was monitored by scanning over the UV absorbance range of 200–800 nm on a Cary 3 Bio UV–visible spectrophotometer (Varian), as a small amount of KKGRN peptide (0.1 equivalence/1 μl per addition) was titrated into the 20 μM BVFP sample. In addition to baseline correction with DMSO, a control titration experiment using water in place of the PGRN(588–593) peptide was performed under identical conditions in order to correct for potential spectral changes owing to sample dilution.

[2] = test system: PGRN endocytosis in WT-hESCs; test: DyL-rPGRN endocytosis in wild-type hESCs; assay type: cell-based; details: Homo sapiens; WT-hESC, BVFP, same conditions as COS-1^SORT1 (5 μM)
Description: as §1, §2

PGRN588–593 peptide = PGRN588–593 peptide (Homo sapiens, UniProt P28799); test: Epic biochemical binding assay (resonant waveguide grating); details: PGRN588–593 peptide immobilized; PBS with 5% DMSO; 30 min binding; n = 4
Description: page 6: SUPPLEMENTARY METHODS AND RESULTS Epic(R) biochemical assay and compound library screen Essentially, the Epic® is a spectrophotometric reader that uses a resonant waveguide grating detection mechanism to detect biochemical interactions (Fig.5A). In brief, the waveguide grating biosensor in each well of the 384-well assay plate intercepts broadband light and measures changes in resonant wavelengths (in picometers, pm) when a ligand binds to the target protein immobilized on the biosensor. To identify chemical binders of the PGRN588-593 peptide, we immobilized the peptide onto the biosensor surface of Epic® assay plates using an amine- coupling method, and screened 4,800 compounds. For immobilization, 150 µg/ml peptide diluted in a 20 mM sodium acetate buffer, pH 5, was added to the assay plate to incubate for overnight at 4 °C. The plate was then washed in binding buffer (PBS with 5% DMSO) for three times and equilibrated in the binding buffer for 6 h in the Epic® carousal. During the equilibration period, compounds from the library stock plate (CNS-set compound library from Chembridge®) were diluted to 50 µM in binding buffer. Each compound was tested in quadruplicate. After the equilibration, a Baseline Reading was acquired by the Epic® spectrophotometer. […] After mixing and a 30 min ‘binding’ period, a Final Reading was acquired. […]

[3] = test system: SORT1-mediated PGRN endocytosis; test: Quantitative DyL-rPGRN endocytosis assay in COS-1^SORT1 cells; assay type: cell-based, human; details: COS-1^SORT1, 5 μM binder pre-incubated 1 h with rPGRN, 1 h endocytosis
Description: COS-1 cells seeded on a 96-well black plate 1 day before were transfected with pCMV-SORT1 vector. After 24 h, cells were treated with fluorescence-tagged rPGRN (DyL-rPGRN) pre-labeled by DyLight™ 594 antibody labeling kit (Thermo Scientific). The DyL-rPGRN was diluted in OptiMEM to tested concentrations and incubated with the cells for 1 h for endocytosis. The cells were then washed with cold PBS and then fixed by 4% paraformaldehyde. After washing twice, each well was filled with PBS prior scanning. The total PGRN fluorescent signal from the cells was obtained by a plate reader with 593/618 nm (Ex/Em) settings. The endocytosis signal was normalized by the total nuclei signal obtained by staining with a Hoechst 33342 dye. Baseline endocytosis signal was defined as a signal from medium-only-treated cells, whereas the 100% endocytosis level was set as the signal obtained from cells treated with 50 nM DyL-rPGRN. For testing SORT1 ligands, DyL-rPGRN and the peptide were added simultaneously to the cells. For testing of PGRN binders, the binder was pre-incubated with DyL-rPGRN for 1 h before adding to the cells. For qualitative analysis, images from each well were captured by BD Pathway 855 system using a 20× magnification setting.

SORT1 = test: PGRN endocytosis in M17 cells overexpressing SORT1; assay type: cell-based; details: M17 cells overexpressing SORT1, after EL reaction
Description: M17 cells seeded in 12-well culture plates (western blot) or on glass coverslips in 24-well culture plate (immunofluorescence) were transfected with pEGFP-N1 (Clontech) or pCMV-SORT1 (OriGene) vectors. Next day, the cells were changed into serum-free medium 1 h before addition of rPGRN (500 ng/ml) and treated for 60 min. The cells were then put on ice and washed with cold PBS. For western blot, cells were lysed in cold M-Per protein extraction buffer followed by standard procedures as mentioned. For immunofluorescence analyses, cells were fixed in 4% paraformaldehyde solution followed by PBS washes. The cells were then incubated in blocking buffer (PBS, 5% goat serum, 0.1% saponin) for 1 h at room temperature followed by incubation in primary antibody overnight at 4°C. The cells were incubated with secondary antibodies (1:1000) for 1 h at room temperature. The coverslips were then mounted onto slides and waited overnight before analysis. Image analysis was performed by Zeiss LSM 510 META confocal microscope using 60× magnification setting.

elastase = test: Elastase digestion of rPGRN in cell culture media; assay type: in vitro ADME; details: in vitro reaction with EL in culture media; compared with WT rPGRN, western blot
Description: PGRN, SORT1, GFP, GAPDH and β-actin proteins were analyzed using 10% Tris–glycine polyacrylamide gel by SDS–PAGE. After electrophoresis, proteins on gel were transblotted to PVDF membranes followed by standard immunoblotting protocols.

Molecule: O=C(CCCCCCC(=O)Nc1ccccc1)NO [suberoylanilide hydroxamic acid]
GRN expression (GRN expression): enhancer of GRN expression

isosbestic point (PGRN(588–593) peptide): 313 nm
Kd (PGRN588–593 peptide): 20 µM
Molecule: O=c1nc(C=Cc2cccc(Br)c2)cc(C(F)(F)F)[nH]1 [BVFP, 4-[2-(3-bromophenyl)vinyl]-6-(trifluoromethyl)-2(1H)-pyrimidinone]
effect on DyL-rPGRN endocytosis [1]: no effect on DyL-rPGRN endocytosis
inhibition of rPGRN binding to immobilized SORT1 (SORT1–PGRN interaction): dose-dependent inhibition of rPGRN binding to immobilized SORT1
UV-absorption change upon peptide titration (PGRN(588–593) peptide): shift in the ultraviolet(UV)-absorption spectra of BVFP and distinct changes of absorption intensities
inhibition at 5 µM [2]: 22%
inhibition of DyL-rPGRN endocytosis [3]: 23%

B1: A588G-rPGRN: rPGRN with Ala-to-Gly mutation at the A588 elastase cleavage site (protein)
chain: TRCPDGQFCPVACCLDPGGASYSCCRPLLDKWPTTLSRHLGGPCQVDAHCSAGHSCIFTVSGTSSCCPFPEAVACGDGHHCCPRGFHCSADGRSCFQRSGNNSVGAIQCPDSQFECPDFSTCCVMVDGSWGCCPMPQASCCEDRVHCCPHGAFCDLVHTRCITPTGTHPLAKKLPAQRTNRAVALSSSVMCPDARSRCPDGSTCCELPSGKYGCCPMPNATCCSDHLHCCPQDTVCDLIQSKCLSKENATTDLLTKLPAHTVGDVKCDMEVSCPDGYTCCRLQSGAWGCCPFTQAVCCEDHIHCCPAGFTCDTQKGTCEQGPHQVPWMEKAPAHLSLPDPQALKRDVPCDNVSSCPSSDTCCQLTSGEWGCCPIPEAVCCSDHQHCCPQGYTCVAEGQCQRGSEIVAGLEKMPARRASLSHPRDIGCDQHTSCPVGQTCCPSLGGSWACCQLPHAVCCEDRQHCCPAGYTCNVKARSCEKEVVSAQPATFLARSPHVGVKDVECGEGHFCHDNQTCCRDNRQGWACCPYRQGVCCADRRHCCPAGFRCAARGTKCLRREAPRWDAPLRDPGLRQLL
modifications: left off: His6, end not stated, state not stated
notes: rPGRN with Ala-to-Gly mutation at the A588 elastase cleavage site
uptake after elastase treatment (SORT1): endocytosed by cells to a similar extent compared with no EL control
resistance to elastase (residual full-length protein in medium) (elastase): more resistant to EL activity
